The record followed here is publication PMC10380385, “Synthesis, In Vitro, and In Vivo Investigations of Pterostilbene-Tethered Analogues as Anti-Breast Cancer Candidates” (International Journal of Molecular Sciences, 2023).

Format in all cases: cell-based
Experiment [1] has as its system MDA-MB-231 cells. In words: MTT anti-proliferative assay, MDA-MB-231. To be noted: Homo sapiens, 48 h. Here is the method:
(§1) The in vitro anti-proliferative activity of all synthesized analogues against MDA-MB-231 and MCF-7 cells was tested using the 3-(4,5-dimethylthiazol-2-yl)-[…] (MTT) method. […] Usually, Dox has been used as a positive control in many basic studies, especially drug screening assay. […] In the meantime, the cytotoxic activity of 2K–2N, PTE, and Dox against MCF-10A (human breast epithelial cell line) was examined. […] By contrast, the substitution of a saturated six-membered nitrogen heterocyclic ring on the side chain is extremely favorable for enhancing anti-BC efficacy (2L–2N vs. 1, PTE, 2A–2J). Based on the preceding analysis, analogue 2L was selected as the most promising anti-BC agent and used in the follow-up study.
(§2) The human breast cancer cell lines MDA-MB-231 and MCF-7 were purchased from the Chinese Academy of Science and cultured in Dulbecco’s modified Eagle’s medium (DMEM, Gibco, New York, NY, USA) containing 10% fetal bovine serum (FBS), 2 mM L-glutamine, 100 U/mL penicillin, and 100 μg/mL streptomycin. Then, the cells were maintained in a humidified incubator at 37 °C in the presence of 5% CO2.
(§3) The MTT assay was used to test the effect of PTEs on cell viability. The MDA-MB-231 (3 × 10^3 cells/well) and MCF-7 (4 × 10^3 cells/well) cells were seeded in a 96-well plate and cultured at 37 °C in a 5% CO2 incubator overnight. Afterwards, the medium was replaced with different concentrations of the title compounds (1, 3, 10, 30, and 100 μM). After incubation for 48 h, 10 μL of MTT solution (5 mg/mL) was added to each well and incubated for another 4 h. The optical density (OD) of the samples was measured using a microplate reader (Biotek, Burlington, VT, USA) at 570 nm. The inhibition rate (%) = [A570 (control) − A570 (compound)]/A570 (control) × 100%. The IC50 values were calculated using SPSS software version 17.0 (SPSS Inc., Chicago, IL, USA).
(Formazan colour is commonly taken as a measure of viable cells.)

Experiment [2] relates to MCF-7 cells. In words: MTT anti-proliferative assay, MCF-7. The following applies: Homo sapiens, MCF7, 48 h. Here is the method:
as §1, §2, §3

Experiment [3] relates to MCF-10A (human breast epithelial cell line). In words: Cytotoxic activity against MCF-10A. To be noted: cytotoxicity, normal breast epithelial cells. Here is the method:
as §1

As for `COc1cc(/C=C/c2ccc(OCCCn3ccnc3)cc2)cc(OC)c1` [Compound 2K, (E)-1-(3-(4-(3,5-dimethoxystyryl)phenoxy)propyl)-1H-imidazole], the half-maximal inhibitory concentration (IC50) is 18.7 ± 0.71 µM in experiment [1], 21 ± 0.56 µM in experiment [2] and 49 ± 1.31 µM in experiment [3].
With `COc1cc(/C=C/c2ccc(OCCCN3CCOCC3)cc2)cc(OC)c1` [Compound 2M, (E)-4-(3-(4-(3,5-dimethoxystyryl)phenoxy)propyl)morpholine], the IC50 in experiment [1] amounted to 49.3 ± 2.48 µM; in experiment [2], 42 ± 0.79 µM; in experiment [3], 70.39 ± 0.43 µM.
Consider `COc1cc(/C=C/c2ccc(OCCCN3CCN(C)CC3)cc2)cc(OC)c1` [Compound 2N, (E)-1-(3-(4-(3,5-dimethoxystyryl)phenoxy)propyl)-4-methylpiperazine], for which the half-inhibitory concentration (IC50) is 17.7 ± 0.81 µM in experiment [1], 18.1 ± 0.55 µM in experiment [2] and 37.3 ± 0.96 µM in experiment [3].
Take `COc1cccc2c1C(=O)c1c(O)c3c(c(O)c1C2=O)C[C@@](O)(C(=O)CO)C[C@@H]3O[C@H]1C[C@H](N)[C@H](O)[C@H](C)O1` [Dox, Doxorubicin, reference compound]: the IC50 in experiment [1] is 2.3 ± 0.32 µM; in experiment [2] it was 3.57 ± 0.41 µM; in experiment [3], 2.27 ± 0.19 µM.
The matching figures for `COc1cc(/C=C/c2ccc(O)cc2)cc(OC)c1` [PTE, 3,5-dimethoxy-4′-hydroxy-trans-stilbene, reference compound]: 63.59 ± 0.4 µM, 44.3 ± 0.48 µM and above 100 µM.

The term IC50 denotes the concentration that inhibits the measured activity by half.
